Test results as given in patent US11285144B2, “Use of CDK8 inhibitors to treat diseases of inflammation and autoimmunity” (THE BROAD INSTITUTE, INC., priority 2016, dated 2022).
“Also recorded” adds a separate entry of the source.

Legend:
[1] = test system: Zymosan A-stimulated BMDCs; assay: Cytokine production by Zymosan A-stimulated BMDCs; type: cell-based, mouse; conditions: zymosan A-stimulated BMDCs
Description: Towards the goal of identifying new mechanisms of IL-10 regulation, 59,346 small molecules were screened for the ability to enhance IL-10 production by activated bone marrow-derived dendritic cells (BMDCs) using a high-throughput assay developed previously (Sundberg et al., PNAS 111:12468-12473, 2014). Compounds were derived from both commercial collections and structurally and skeletally diverse libraries prepared by diversity-oriented synthesis (DOS). More than 60 hit compounds were identified that reproducibly enhance IL-10 production in a concentration-dependent manner (Table 1). Three distinct chemotypes were prioritized for follow-up based on potency and an initial analysis of structure-activity relationship (SAR) with respect to core scaffold, stereochemistry and side chains (FIG. 2a).
(§1) The pyridinyl tetrahydroquinoline BRD6989 (10) emerged as a prioritized hit in the screen (FIG. 2a and Table 2). […] Thus, BRD6989 enhances IL-10 production in activated human and murine macrophages and dendritic cells by a mechanism that appears most pronounced following stimulation of toll-like receptors-7 (TLR7) and TLR8 by R848.

tubulin = assay: Tubulin polymerization, cell-free assay; type: biochemical
Description: FIG. 4—DOS-derived IL-10 hit BRD0326 perturbs microtubule dynamics. (a) Chemical structure of BRD0326. […] (c) BRD0326's IL-10 enhancing activity depends on its stereochemistry (EC50's=mean of 2 independent experiments). (d) Transcriptional responses elicited by BRD0326 correlate with those induced by small molecule modulators of microtubule dynamics.

R848-stimulated BMDCs [2] = assay: Cytokine production by R848-stimulated BMDCs; type: cell-based, mouse
Description: as §1
(§2) Pre-treatment with these CDK8/19 inhibitors recapitulated the IL-10 potentiating activity of BRD6989 in both BMDCs (FIG. 9b) along with human DCs derived from two independent donors in the context of R848 stimulation (FIGS. 9c and 10a).

[3] = test system: human, monocyte-derived DCs; assay: IL-10 production in human monocyte-derived DCs stimulated with R848; type: cell-based
Description: as §1, §2

R848-stimulated BMDCs [4] = assay: IL-10 mRNA levels in BMDCs following R848 stimulation; type: cell-based, mouse; conditions: pre-treatment, then R848 stimulation
Description: FIG. 5—Cellular activities of the IL-10 hit BRD6989. […] (d) Effect of BRD6989 on IL-10 production in human DCs stimulated with R848 (each point corresponds to mean±S.D.; n=3 biological replicates from 1 independent experiment using cells derived from 1 donor). (e) Chemical structure of the pan-SIK inhibitor HG-9-91-01. (f) Effect of pre-treating BMDCs with HG-9-91-01 (0.5 μM) or BRD6989 (5 μM) on IL-10 mRNA levels following stimulation with R848 (each point corresponds to mean±S.D.; n=4 biological replicates from 1 independent experiment; *, P<0.05; ***, P<0.001 using unpaired, two-tailed Student's t test). Data from all panels is representative of at least 2 independent experiments.
Based on its ability to selectively potentiate IL-10 production by a mechanism that appears temporally distinct from CREB activation, BRD6989 was prioritized for MOA studies.

[5] = test system: BMDCs stimulated with R848 or Zymosan A; assay: Co-treatment of BMDCs with T-5224, cytokine production; type: cell-based, mouse; conditions: T-5224 100 μM
Description: FIG. 13—Modulation of c-Jun/AP-1 links CDK8 inhibition to enhanced IL-10 production. (a) CDK8 responsive signaling pathways in activated BMDMs as identified by the highly parallel reporter gene assay TF-Seq. Reporter data is integrated for time points between 15 min 4 hr from 1 independent experiment. Dashed lines correspond to FDR<0.05 as corrected by Benjamin-Hochberg testing. (b) Relative to all highly expressed genes, JunB binding sites are enriched among the subset of genes induced by CDK8 inhibition (see Online Methods). […] Data is representative of 2 independent experiments. […] Data is representative of 2 independent experiments. […] CpG, synthetic CpG-containing oligonucleotide; FLA, flagellin A; LPS, lipopolysaccharide; MDP, muramyldipeptide; Pam3cys, synthetic triacylated lipoprotein; poly(I:C), polyinosinic-polycytidylic acid; SeV, Sendai virus; TDB, trehalose-6,6-dibehenate.
FIG. 15—CDK8 inhibition enhances AP-1 activity during innate immune activation. (a) Time course of AP-1 reporter activity in BMDMs pre-treated with dCA (0.1 μM) or BRD6989 (5 μM) prior to stimulation with the indicated viruses or microbial ligands for the indicated time points (each point corresponds to TF-Seq reporter data derived from 1 independent experiment). […] Data is from 1 independent experiment. (c) Chemical structure of the c-Fos/AP-1 inhibitor T-5224. […] Data in panels (c,d) are representative of 2 independent experiments. CpG, synthetic CpG-containing oligonucleotide; FLA, flagellin; LPS, lipopolysaccharide; MDP, muramyldipeptide; Pam3cys, synthetic triacylated lipoprotein; Poly(I:C), polyinosinic-polycytidylic acid; SeV, Sendai virus; TDB, trehalose-6,6-dibehenate.
Given the presence of an AP1 consensus motif in IL-10 and evidence that potentiation of MAP kinase signaling can increase IL-10 production (Saraiva et al., Nat Rev Immunol 10:170-81, 2010; Wang et al., Nat Commun 5:3479, 2014; Na et al., Science Signaling 8:2015), it was hypothesized that increased AP-1 activity resulting from reduced c-Jun Ser243 phosphorylation may mediate activation of IL-10 following CDK8 inhibition.

`CS(=O)(=O)N1[C@H](C#N)[C@H](c2ccc(C#Cc3cccc(F)c3)cc2)[C@H]1CO` [BRD0326] was tested, and the IL-10 production [1] was “potentiates IL-10 production by Zymosan A-stimulated BMDCs to a similar degree as PGE2” and the “tubulin / microtubule polymerization” value (tubulin) was “suppressed microtubule polymerization; also recorded: suppresses tubulin polymerization”.
For `Cn1ncc2cc(-c3cnc(N)c(Cl)c3N3CCC4(CCNC4=O)CC3)ccc21` [CCT251921], the IL-10 production (R848-stimulated BMDCs [2]) was “recapitulate the IL-10 enhancing activity of BRD6989” and the IL-10 production [3] was “recapitulate IL-10 potentiation by BRD6989”.
`COc1ccc(N(C(=O)Nc2c(C)cccc2C)c2cc(Nc3ccc(N4CCN(C)CC4)cc3)ncn2)c(OC)c1` [HG-9-91-01, reference compound] was tested, and the “IL-10 mRNA levels” value (R848-stimulated BMDCs [4]) was “elevate Il-10 mRNA immediately following microbial stimulation without greatly extending the duration of this response”.
In the case of `O=C(O)CCc1cc(C(=O)c2ccc(OC3CCCC3)cc2O)ccc1OCc1ccc2c(=O)[nH]oc2c1` [T-5224], the “production of IL-6 or TNFα on co-incubation with dCA” value ([5]; R848) was “does not affect production of IL-6 or TNFα”, the “IL-10 production on co-treatment with dCA” value ([5]; R848 or Zymosan A) was “suppressed IL-10 production; also recorded: suppresses the IL-10 enhancing activity of dCA” and the “IL-10 increase induced by HG-9-91-01 on co-treatment” value ([5]; Zymosan A) was “did not affect; also recorded: does not affect up-regulation of IL-10 or suppression of IL-6”.
With `CN(C)C/C=C/C(=O)Nc1ccc(C(=O)Nc2cccc(Nc3ncc(Cl)c(-c4c[nH]c5ccccc45)n3)c2)cc1` [THZ-1] the IL-10 production (R848-stimulated BMDCs [2]) was “not enhanced”.
